What was measured:
[1] = tested on: isolated rat bladder smooth muscle cell; experiment: Current clamp recording of resting membrane potential, rat cells; type: cell-based; conditions: 10 μM retigabine
Text: (§1) Rat detrusor cells are isolated in a manner previously described for guinea-pig detrusor (Sheldon J H, Norton N W and Argentieri T M (1997) Inhibition of guinea pig detrusor contraction by NS-1619 is associated with activation of BKCa and inhibition of calcium currents. J Pharmacol Exp Thera 283(3): 1193–1200). Male Sprague-Dawley rats (Charles River, Wilmington, Mass.; 200–400 grams) are euthanized by CO2 inhalation and exsanguination. Their urinary bladders are rapidly removed and placed in 37° C. physiological solution with the following composition (mM): Na glutamate (80.0), NaCl (54.7), KCl (5.0), NaHCO3 (25.0), MgCl2.2H2O (2.5), D-glucose (11.8) and CaCl2 (0.2) gassed with O2—CO2, 95%/5% for a final pH of 7.4. The dome of the bladder is isolated from the trigone region and the mucosa is removed. This tissue is then cut into 2–3 mm wide strips and placed into fresh buffer for 1 hour. Tissues are then transferred into 10 ml of an isolation buffer containing the above composition plus collagenase type VIII (1.0 mg/ml) and pronase (0.25 mg/ml). After 10 minutes the isolation buffer is replaced with fresh isolation buffer for an additional 10 min. The tissue is then washed 3 times in fresh collagenase and pronase free solution and stored at room temperature until studied. Cells for study are prepared by triturating 1–2 pieces of detrusor tissue in 2 ml of fresh isolation buffer for 5 minutes with a polished Pasteur pipette, (tip diameter ˜1.5 mm) attached to a modified Harvard Respirator pump (Harvard Apparatus, Southnatic, Mass.) at a rate of 20×/min. with an approximate volume of 5 ml. Cells are then placed on a microscope stage in a temperature regulated tissue bath at 32.5° C. and continually superfused with PSS.
(§2) Single cell recordings are performed with a List-Medical EPC-7 patch clamp amplifier (Adams & List Assoc., Westbury, N.Y.). Pipette electrodes had tip resistances of 2–4 MΩ and are filled with the following composition (mM): KCl (126.0), MgCl2.6H2O (4.5), ATP Mg salt (4.0), GTP tris salt (0.3), creatine PO4 (14.0), D-glucose (9.0), EGTA (9.0), HEPES (9.0). The pH is adjusted to 7.4 with KOH. Signals are acquired (3 kHz high frequency cut-off, 12 bit resolution) using a 586-based personal computer.
Cell resting membrane potential (RMP) is measured in current clamp using the above mentioned instrumentation and pipette solutions. For these experiments nystatin is also added to the pipette solution (100 μg/ml) to allow recording through utilization of the perforated patch technique (Korn, et al, 1991). […] After this time, various antagonists (linopirdine, XE-991) are added to the perfusate and RMP is recorded for an additional 5 minutes. […]

[2] = tested on: isolated rat bladder smooth muscle cell; experiment: Voltage clamp recording of outward current, rat cells; type: cell-based; conditions: test potentials between −50 and 80 mV; n=5
Text: as §1, §2
Whole cell recordings are made using broken patch access. Currents are evoked using either voltage steps (Vh=−50; Vt=−60 to 40 mV) or voltage ramps (−60 to 40 mV at 3.3 mV/sec.). The exact voltage clamp protocols are well known in the art. After stability is achieved control currents are recorded. Next, test compound is added to the superfusate. Currents are recorded for 5 to 10 minutes or until compound effects reach steady state. This is followed either by washout or addition of antagonists (linopirdine, XE-991) to the superfusate. […]

CCOC(=O)Nc1ccc(NCc2ccc(F)cc2)cc1N [retigabine, N-[2-amino-4-(4-fluorobenzylamino)-phenyl]carbamic acid ethyl ester]
hyperpolarization of the cell ([1]; RMP −40 mV before exposure, single tracing FIG. 3a): approximately 10 mV | resting membrane potential (RMP) after exposure ([1]; control RMP −29.0±4.5 mV, n=3): −43.0±3.5 mV | effect on outward current [2]: increase in outward current
